The text below walks through data of publication PMC12193109, “Bioprospecting for Anti-Kinetoplastid Drug Discovery from Aloysia citrodora Essential Oil” (International Journal of Molecular Sciences, 2025).

SMILES strings stand for the structures. Like-named read-outs stand apart in the source and are kept apart here.

Data set [1] concerns T. cruzi epimastigotes. The experiment in a line: In vitro trypanocidal activity on T. cruzi epimastigotes (alamarBlue). It counts as cell-based, Trypanosoma cruzi. The following applies: 72 h; for IC50: Trypanosoma cruzi. As to the method: In a 96-well plate, a serial dilution of the tested compounds was performed in the liver infusion tryptose medium supplemented with 10% heat-inactivated fetal bovine serum. Later, 100 µL of 5 × 10^5 cells/mL of epimastigotes was added to each well. Afterwards, 20 µL of alamarBlue® was added to each well, and the plate was maintained at 26 °C for 72 h.
(§1) The cytotoxicity effect of the tested compounds was conducted using macrophages of the murine cell line J774.A1 (American Type Culture Collection #TIB-67) as previously described. The cells were maintained in the DMEM medium at 37 °C in a 5% CO2 humidified incubator. All the plates containing alamarBlue® were analyzed using the plate reader EnSpire Multimode Plate Reader® at excitation and emission wavelengths of 570 and 585 nm, respectively (PerkinElmer, ThermoFisher Scientific, Madrid, Spain). The IC50 (concentrations able to inhibit 50% of parasites), IC90 (concentrations able to inhibit 90% of parasites), and CC50 (concentration able to inhibit 50% of murine macrophages) values were determined for each compound by nonlinear regression using the GraphPad Prism 9 software.
(Resazurin is reduced to fluorescent resorufin, in cell work by metabolically active cells.)

Data set [2] can be described thus: In vitro leishmanicidal activity on L. amazonensis promastigotes (Alamar Blue). It counts as cell-based, Leishmania amazonensis. The note with it: mouse; CC50 J774.A1 macrophages / IC50 L. amazonensis promastigotes; read-out: Selectivity SI (CC50/IC50), promastigotes. On the procedure: (§2) The assay was conducted using the Alamar Blue® method as previously described. […] In 96-well microtiter plates (Corning^TM, Corning, NY, USA), serial dilutions of the citral derivative were first prepared, and later 10^6 parasites/mL were added into each well. Subsequently, 10% Alamar Blue® was added to the entire plate. The plates were incubated for 72 h at 26 °C. The cytotoxicity effect of the tested compounds was conducted using macrophages of the murine cell line J774.A1 (American Type Culture Collection #TIB-67) as previously described. The cells were maintained in the DMEM medium at 37 °C in a 5% CO2 humidified incubator. […] The IC50 (concentrations able to inhibit 50% of parasites), IC90 (concentrations able to inhibit 90% of parasites), and CC50 (concentration able to inhibit 50% of murine macrophages) values were determined for each compound by nonlinear regression using the GraphPad Prism 9 software.

Data set [3] has as its system L. amazonensis promastigotes. The data set is described as above. The following applies: 72 h, promastigotes, 72 h, ± SD. It counts as cell-based, Leishmania amazonensis. As to the method: as §2
A short description of data set [4]: Cytotoxicity on murine macrophages. The note with it: mouse, ± SD. It counts as cell-based. On the procedure: as §1
A short description of data set [5]: In vitro leishmanicidal activity on L. amazonensis intracellular amastigotes. The note with it: mouse; CC50 J774.A1 macrophages / IC50 L. amazonensis amastigotes; read-out: Selectivity SI (CC50/IC50), amastigotes. It counts as cell-based, Leishmania amazonensis.
The test system of data set [6] is L. amazonensis intracellular amastigotes. Described as above. It counts as cell-based, Leishmania amazonensis. The note with it: Leishmania amazonensis; intracellular amastigotes; ± SD.
In data set [7] the test system is L. amazonensis promastigotes. The experiment in a line: Mitochondrial membrane potential (JC-1 staining). It counts as cell-based, Leishmania amazonensis. The following applies: IC90, 24 h, JC-1 red/green fluorescence ratio. On the procedure:
The effect of compound 9 to modulate cell features was studied in the L. amazonensis parasites using various specific commercial kits. Parasite cells were incubated with the compound at the previously calculated IC90 for 24 h. Subsequently, cells were washed and submitted to different treatments as mentioned by the manufacturer’s instructions. In all the assays, the plate reader EnSpire Multimode Plate Reader® (PerkinElmer, ThermoFisher Scientific, Madrid, Spain) and/or the image base system fluorescence microscope EVOS M5000 (version 1.5.1500.493) were used for fluorescence intensity quantification. […]
To evaluate the damage caused by the tested compound on mitochondrial function, mitochondrial membrane potential, the adenosine triphosphate (ATP) level, and reactive oxygen species (ROS) were measured as follows: The evaluation of the mitochondrial membrane potential was carried out using the JC-1 assay. JC-1 is a specific stain of the mitochondria which fluorescence emission depends on the mitochondrial membrane potential. In healthy mitochondria, JC-1 agglomerates and emits red fluorescence, while unhealthy ones remain as a monomer and emit green fluorescence. […]

Data set [8] relates to L. amazonensis. Description: ATP level (CellTiter-Glo luminescence). It counts as cell-based, Leishmania amazonensis. The note with it: IC90, 24 h. As to the method: (§3) The effect of compound 9 to modulate cell features was studied in the L. amazonensis parasites using various specific commercial kits. Parasite cells were incubated with the compound at the previously calculated IC90 for 24 h. Subsequently, cells were washed and submitted to different treatments as mentioned by the manufacturer’s instructions. In all the assays, the plate reader EnSpire Multimode Plate Reader® (PerkinElmer, ThermoFisher Scientific, Madrid, Spain) and/or the image base system fluorescence microscope EVOS M5000 (version 1.5.1500.493) were used for fluorescence intensity quantification. For each protocol, images of representative population cells were obtained using the inverted confocal microscope Leica DMI 4000 B with the Leica Application Suite X 3.5.5.19976 software and Leica HC PL APO 63x/1.40 OIL CS2 Objective (Barcelona, Spain).
The adenosine triphosphate (ATP) level was measured using the CellTiter-Glo Luminescent Cell Viability Assay (Promega, Madrid, Spain). The mitochondrion in which most cellular oxidations occur is considered the main source of cell ATP, and any damage and/or malfunction of this organelle generate the depletion of ATP levels.
For orientation: ATP-based viability assays read luminescence as a measure of living cells.

The test system of data set [9] is L. amazonensis. The experiment in a line: Intracellular ROS (CellROX Deep Red). It counts as cell-based, Leishmania amazonensis. The note with it: IC90, 24 h. As to the method:
as §3, with “Parasite” for “The effect of compound 9 to modulate cell features was studied in the L. amazonensis parasites using various specific commercial kits. Parasite”, “Spain). The measure of reactive oxygen species (ROS) was measured after treatment for 24 h using the CellROX® Deep Red fluorescent probe (Invitrogen, Madrid, Spain). The mitochondrion constitute an essential organelle to neutralize the reactive oxygen species; the malfunction of this organelle would generate an imbalance between the antioxidants and the reactive oxygen.” for “Spain).”

Data set [10] deals with L. amazonensis. Description: Plasma membrane permeability (SYTOX Green). It counts as cell-based, Leishmania amazonensis. The following applies: IC90, 24 h. As to the method:
as §3
SYTOX^TM Green (Life Technologies, Madrid, Spain), a cell-impermeable DNA-binding stain, was used to evaluate membrane permeability and integrity. The assay was conducted as detailed in the manufacture instructions and as previously described.

Data set [11] has as its system L. amazonensis promastigotes. Description: Double stain assay (Hoechst 33342/PI) for programmed cell death. It counts as cell-based, Leishmania amazonensis. The note with it: IC90, 24 h. As to the method: as §3
To identify the type of cell death occurring in treated Leishmania amazonensis, the Hoechst 33342 and propidium iodide (PI) dyes were employed. […] Post-treatment, three distinct staining patterns could be observed: blue fluorescence indicating cells […]; violet coloration resulting from the merge of blue and red fluorescence, representing late apoptotic cells; and red fluorescence corresponding to dead cells.

[12] abbreviates: Leishmania amazonensis, Alamar Blue, read-out: L. amazonensis IC50.
Where [13] appears, read: Leishmania amazonensis, read-out: L. amazonensis Promastigotes IC50.

As for `O=C(Cn1ccnc1[N+](=O)[O-])NCc1ccccc1` [Benznidazole, reference compound], the IC50 is 1.81 µM in data set [1] and 1.81 ± 0.5 µg/mL in data set [1] (alamarBlue, ± SD).

With `CC(C)=CCCC(C)=CC=O` [Compound 1, 3,7-dimethyl-2,6-octadienal], in [2], the selectivity ratio was found to be 6.97. Further, the IC50 in data set [3] (setting [12]) was determined as 10.9 µg/mL; in data set [1], 12.9 µM; in data set [1] (alamarBlue, ± SD) it was 24.8 µg/mL. The “L. amazonensis IC50” value in data set [3] (Alamar Blue, listed as Citral (1)) is on record as 8.47 ± 4.59 µg/mL. In addition, in [1] (alamarBlue, ± SD, listed as Citral (1)), the “T. cruzi IC50” value is reported as 12.90 ± 1.92 µg/mL. In addition, the CC50 in data set [4] (J774.A1 macrophage cell line) is more than 300 µM.

As to `CC(C)=CCC/C(C)=C/C=NO` [Compound 2, citral oxime], the figures for the selectivity ratio in data set [2] and in [5] were 12.6 and 9.39, respectively. For the same molecule, the IC50 in [3] (setting [13]) turned out to be 40.8 ± 19.4 µM; in data set [6], 56.9 ± 19.1 µM. For the same molecule, the cytotoxic concentration (CC50) in data set [4] (J774.A1 macrophage cell line) was more than 300 µM.

Take `CC(=O)ON=C/C=C(\C)CCC=C(C)C` [Compound 3, citral oxime acetate]: the IC50 in data set [3] (setting [13]) is more than 100 µM.

Turning to `CCCC(=O)ON=C/C=C(\C)CCC=C(C)C` [Compound 4, citral oxime butyrate], the IC50 in data set [3] (setting [13]) was more than 100 µM.

Regarding `CC(C)=CCC/C(C)=C/C=NOC(=O)c1ccccc1` [Compound 5, citral oxime benzoate], the selectivity ratio in [2] amounted to 10.4. The concentration for half-maximal inhibition (IC50) in [3] (setting [13]) came to 29.3 ± 8.07 µM. In [4] (J774.A1 macrophage cell line), this molecule showed a CC50 of more than 300 µM.

For `CC(C)=CCC/C(C)=C/C=NOC(=O)c1ccc([N+](=O)[O-])cc1` [Compound 6, citral oxime 4-nitrobenzoate], the selectivity ratio in [2] came to 9.25. Also, the IC50 in [3] (setting [13]) was 34.2 ± 14.4 µM. The CC50 in data set [4] (J774.A1 macrophage cell line) was more than 300 µM.

As for `CC(C)=CCC/C(C)=C/C=NNC(N)=O` [Compound 7, citral semicarbazone], the selectivity ratio in data set [2] came out at 9.29. Besides, the IC50 in data set [3] (setting [13]) is 43.8 ± 12.1 µM. Moreover, the CC50 in data set [4] (J774.A1 macrophage cell line) was more than 300 µM.

Consider `CC(C)=CCCC(C)=CC=NNc1ccc([N+](=O)[O-])cc1[N+](=O)[O-]` [Compound 9, citral 2,4-dinitrophenylhydrazone], for which the figures for the selectivity ratio in data set [2] and in data set [5] were 2.98 and 1.47, respectively. Also, the 50% inhibitory concentration (IC50) in [3] (setting [13]) was 10.6 ± 4.78 µM; in data set [6], 21.4 ± 0.65 µM. In addition, the midpoint of cytotoxicity in data set [4] (murine macrophages J774.A1), the CC50, lay at 31.6 ± 1.96 µM. Also, the “Decrease of mitochondrial membrane potential in comparison with untreated cells” value in data set [7] is given as 50%. Besides, the “Reduction in ATP production in comparison to the negative controls” value in data set [8] is given as 46.35%. The “Intracellular ROS level (in words)” value in data set [9] is “significant increase in emitted fluorescence”. Moreover, the “Effect on plasma membrane permeability (in words)” value in [10] is recorded as “can affect the cell’s membrane permeability”. For the same molecule, the “Type of cell death (in words)” value in data set [11] is reported as “induction of mitochondrial-dependent apoptosis”.

Consider `CCCCCCCCCCCCCCCCOP(=O)([O-])OCC[N+](C)(C)C` [Miltefosine, reference compound], for which the selectivity ratio in [2] was determined as 11.2; in data set [5], 23.1. For the same molecule, the IC50 is 2.64 ± 0.09 µg/mL in [3] (setting [12]), 2.64 µM in data set [3] (read-out: L. amazonensis Promastigotes IC50) and 3.12 ± 0.3 µM in data set [6]. In [4] (J774.A1 macrophage cell line), this molecule gave a CC50 of 72.2 ± 8.85 µM. For the same molecule, the “Decrease of mitochondrial membrane potential in comparison with untreated cells” value in data set [7] is 75%. Also, the “Reduction in ATP production in comparison to the negative controls” value in data set [8] was found to be 74.11%. The “Effect on plasma membrane permeability (in words)” value in data set [10] is on record as “greater degree of damage to membrane permeability compared to compound 9”.

Usually IC50 stands for the concentration at which inhibition is half-maximal. What is called CC50 is the concentration that lowers cell viability or growth by half. High values mean better tolerance by the cells, low ones harm at low concentration.
